# According to patent US8258128B2, “Organic compounds” (Novartis AG, priority 2006, dated 2012):
# Several values for one entry are separate records, joined by “and”; a condition that tells them apart may be missing. Identical values can stand only once.
# Tested on: urate crystal induced synovitis of the stifle joint in dogs
# Assay: Urate crystal induced synovitis of the stifle joint in dogs, force plate analysis
# Format: in vivo, dog
# Conditions: for Z peak force of the injected rear leg, percent of pre-values, Mean: six dogs
# Description: Objective: The objective of this study is to evaluate the analgesic and anti-inflammatory effect of a single dose of COMPOUND A using a model of urate crystal induced synovitis of the stifle joint in dogs via kinetic gait analysis (force plate).
# Animals: A total of six Beagle dogs (4 males and 2 females) aged between 2 and 9 years and weighing 13 to 15.8 kg are recruited for this study. The dogs are housed in groups of two in light and temperature controlled pens. Each dogs is offered 150-300 g dry pellet food once a day in the morning. Water is available ad libitum through nipple drinkers.
# Acute synovitis model: In this study, acute but reversible arthritis is induced by intra-articular (left or right stifle joint) injection of a saline (NaCl 0.9%) suspension containing 15 mg of monosodium urate crystals.
# Intra-articular injections: Dogs are sedated with medetomidine (40 microg/kg, i.v.). The left of right stifle joint is clipped and prepared aseptically for intrasynovial injection. A 20-gauge needle is inserted lateral to the patellar ligament and introduced into the articular space. To ensure correct placement of the needle, a small amount of synovial fluid is aspirated with an empty 2 ml syringe. Then, approximately 2 ml of the monosodium urate suspension is injected in the joint cavity through the previously placed needle. Sedation is then antagonized with injection of atipamezol (40 μg/kg, i.v.). Dogs are then brought back to their pens for approximately 3 hours. Usually, after this period, the lameness induced by the injection of the monosodium urate crystals suspension is developed to a point where the dogs become non-weight-bearing on the injected leg during standing, walking and trotting. If at this time the dog's lameness grade is not sufficient, the dogs are excluded from this part of the trial.
# Treatments: According to the protocol, both treatments are administered via the oral route approximately 3 hours after the injection of the monosodium urate crystals suspension, and only to the dogs that developed a high-grade lameness. For part 1, half of the dogs are allocated to the COMPOUND A-treated group and the other dogs are allocated to the control group. For part 2, treatments are crossed, so that dogs that are treated with COMPOUND A in part 1 are administered the placebo treatment, and vice versa. The treatments are administered at the doses of 0 mg/kg (placebo) and 2 mg/kg. COMPOUND A is mixed to a placebo formulation (micro-emulsion vehicle without active ingredient) just before administration. The appropriate volumes based on the dogs' bodyweights are given per os with syringes. Thereafter, all syringes are rinsed with NaCl 0.9% and applied to the dogs. The control dogs receive 10 ml of the identical placebo formulation.
# Force plate analysis: A biomechanical platform (OR6-6-1000, Advanced Mechanical Technologies Inc., Watertown, Mass.) that measures 3 dimensional forces and impulses is used for our study. The dogs are trotted over the force plate 1, 2, 3, 4 and 6 hours after administration of the treatments to obtain data of vertical forces and impulses of the affected limb. Baseline values included force plate data obtained the day before the induction of lameness and are set as 100% of the dog's capacity. In order to minimize the effect of inter-individual variation we choose to calculate and express the measured data as percentage of the baseline values. By use of a software (Acquire Software 7.20e, Robert Wells, Mich. State University, East Lansing, Mich.) installed with the force plate and a computer, the vertical peak force (ZpkF) is measured. All data are normalized to the bodyweight of the dogs. Data on other ground reaction forces (e.g. vertical impulse, braking and propulsion peak forces) are also recorded and stored but not analyzed. Data from 5 to 6 valid trials of the injected limb at a given measurement time point are averaged and expressed as percentage of the pre-values. […]
compound,measurement,setting,value
"COC1=Nc2cc(Cl)ccc2/C(=C/C(=O)O)c2sc(Cl)cc21 [COMPOUND A, [2,7-Dichloro-10-methoxy-3-thia-9-aza-benzo[f]azulen-(4Z)-ylidene]-acetic acid]","Z peak force of the injected rear leg, percent of pre-values, individual dogs","2 mg/kg p.o., T + 1 H",0.0%
same,"Z peak force of the injected rear leg, percent of pre-values, Mean","2 mg/kg p.o., T + 1 H",0.0%
same,"Z peak force of the injected rear leg, percent of pre-values, individual dogs","2 mg/kg p.o., T + 2 H",0.0% (5×) and 65.8%
same,"Z peak force of the injected rear leg, percent of pre-values, Mean","2 mg/kg p.o., T + 2 H",11.0%
same,"Z peak force of the injected rear leg, percent of pre-values, individual dogs","2 mg/kg p.o., T + 3 H",86.7% and 93.8% and 71.9% and 79.1% and 0.0% (2×)
same,"Z peak force of the injected rear leg, percent of pre-values, Mean","2 mg/kg p.o., T + 3 H",55.2%
same,"Z peak force of the injected rear leg, percent of pre-values, individual dogs","2 mg/kg p.o., T + 4 H",80.9% and 87.1% and 103.1% and 82.5% and 58.2% and 0.0%
same,"Z peak force of the injected rear leg, percent of pre-values, Mean","2 mg/kg p.o., T + 4 H",68.6%
same,"Z peak force of the injected rear leg, percent of pre-values, individual dogs","2 mg/kg p.o., T + 6 H",78.5% and 106.1% and 87.7% and 85.2% and 83.7%
same,"Z peak force of the injected rear leg, percent of pre-values, Mean","2 mg/kg p.o., T + 6 H",91.2%
same,"Z peak force of the injected rear leg, percent of pre-values, individual dogs","Prevs (day before induction of lameness, set as 100%), 2 mg/kg p.o. group, dogs 519, 525, 652, 664, 2201, 2207",100.0%
same,"Z peak force of the injected rear leg, percent of pre-values, Mean","Prevs (set as 100%), 2 mg/kg p.o. group",100.0%
